Our source for the mortality values is ChEMBL document CHEMBL3046099, “Effect of reduced risk pesticides on greenhouse vegetable arthropod biological control agents” (2011).

The subject of test [1] is Eretmocerus eremicus. Kind of test: Toxicity in Eretmocerus eremicus infested green bean leaves assessed as mortality at 2 times of recommended rate at 48 hr by leaf dip method (reference value: 10%). Format: functional.
Test [2] concerns Eretmocerus eremicus. The test can be described thus: Toxicity in Eretmocerus eremicus infested green bean leaves assessed as mortality at recommended rate at 48 hr by leaf dip method (reference value: 10%). The class given is functional.
The test system of test [3] is Amblyseius swirskii. Kind of test: Toxicity in Typhlodromips swirskii infested green bean leaves assessed as mortality at recommended rate at 48 hr by leaf dip method (reference value: 10%). The class given is functional.
In test [4] the test system is Amblyseius swirskii. The test can be described thus: Toxicity in Typhlodromips swirskii infested green bean leaves assessed as mortality at 2 times recommended rate at 48 hr by leaf dip method (reference value: 10%). The class given is functional.
Test [5] deals with Orius insidiosus. The test can be described thus: Toxicity in Orius insidiosus infested green bean leaves assessed as mortality at 2 times recommended rate at 48 hr by leaf dip method (reference value: 20%). The class given is functional.
In test [6] the test system is Orius insidiosus. Kind of test: Toxicity in Orius insidiosus infested green bean leaves assessed as mortality at recommended rate at 48 hr by leaf dip method (reference value: 20%). The class given is functional.
Test [7] has as its system Eretmocerus eremicus. Kind of test: Toxicity in Eretmocerus eremicus infested cucumber leaves assessed as mortality at recommended rate after 15 days under green house condition (reference value: 30%). Format: functional, organism-based.

Take `CCCCC(C#N)(Cn1cncn1)c1ccc(Cl)cc1` (stereo not given) [MYCLOBUTANIL]: the mortality in the test on Eretmocerus eremicus [1] was determined as 5.3%; with Eretmocerus eremicus [2], 5%; in the test with Amblyseius swirskii [3], 7.5%; in the test with Amblyseius swirskii [4], 17%.
As for `CNC(=O)c1cc(Cl)cc(C)c1NC(=O)c1cc(Br)nn1-c1ncccc1Cl` [CHLORANTRANILIPROLE], the mortality was found to be 0% in the test with Eretmocerus eremicus [1]; 0% in the test with Eretmocerus eremicus [2]; 15.8% in the test with Amblyseius swirskii [3]; 14.3% in the test with Amblyseius swirskii [4]; 16% with Orius insidiosus [5]; 8% in the test on Orius insidiosus [6].
With `O=C([O-])O.[K+]` [POTASSIUM BICARBONATE], the mortality stood at 2.5% with Eretmocerus eremicus [1], 2.5% in the test on Eretmocerus eremicus [2], 19.8% in the test on Amblyseius swirskii [3] and 8.8% in the test on Amblyseius swirskii [4].
As to METAFLUMIZONE, the mortality with Eretmocerus eremicus [7] is 4.4%; in the test with Eretmocerus eremicus [1], 0%; in the test with Eretmocerus eremicus [2] it was 0%; with Amblyseius swirskii [3] it was 14.5%; in the test on Amblyseius swirskii [4], 8.8%; in the test with Orius insidiosus [6], 69%.
